# Measurements as given in patent US20090298800A1, “1,25-DIHYDROXY, 20-CYCLOPROPYL,26-27-DEUTEROALKYL VITAMIN D3 COMPOUNDS AND METHODS OF USE THEREOF” (BioXell S.p.A., priority 2005, published 2009).
# pIC50: −log10 of the molar value.
# Assays:
# RT112 = experiment: Proliferation assay, bladder cancer cell line RT112; format: cell-based, human; conditions: 72 h culture, CyQuant proliferation assay
# Method: (§1) Bladder cancer cell lines (T24, RT112, HT1376 and RT4 are human bladder cancer cell lines; NHEK are normal human keratinocytes) were obtained from the European Collection of Cell Cultures (Salisbury, UK). Cells were plated at 3×10^3 per well, in flat bottomed 96-well plates in 100 μl of DMEM medium containing: 5% Fetal Clone i, […] gentamicin, 1 mM sodium pyruvate and 1% non-essential amino acids. After culturing for 24 h at 37° C. in 5% CO2, to allow cells to adhere to the plates, VDR ligands (compounds (1)-(9)) were added at concentrations ranging from 100 μM to 0.3 μM in 100 μl of above-mentioned complete medium. After a further 72 h of culture, cell proliferation was measured using a fluorescence-based proliferation assay kit. (CyQuant Cell Proliferation Assay Kit, Molecular Probes, Eugene, Oreg., USA). The IC50 was calculated from the regression curve of the titration data.
# IFN-γ production = IFN-γ production in the mixed leukocyte response (MLR) of allogeneic PBMC; format: cell-based; conditions: 120 h, 5 days, ELISA, read-out: INF-γ IC50
# Method: Immature dendritic cells (DC) were prepared as described in Romani, N. et al. (Romani, N. et al. (1996) J. Immunol. Methyl. 196:137). IFN-γ production by allogeneic T cell activation in the mixed leukocyte response (MLR) was determined as described in Penna, G., et al., J Immunol., 164: 2405-2411 (2000).
# Briefly, peripheral blood mononuclear cells (PBMC) were separated from buffy coats by Ficoll gradient and the same number (3×10^5) of allogeneic PBMC from 2 different donors were co-cultured in 96-well flat-bottom plates. The vitamin D3 compounds were added to each of the cultures. After 5 days, IFN-γ production in the MLR assay was measured by ELISA and the results expressed as amount (nM) of test compound required to induce 50% inhibition of IFN-γ production (IC50).
# NHEK = experiment: Proliferation assay, normal human keratinocytes NHEK; format: cell-based; conditions: 72 h culture, CyQuant proliferation assay
# Method: as §1
# RT4 = experiment: Proliferation assay, bladder cancer cell line RT4; format: cell-based, human; conditions: 72 h culture, CyQuant proliferation assay
# Method: as §1
# HT 1376 = experiment: Proliferation assay, bladder cancer cell line HT1376; format: cell-based; conditions: Homo sapiens, 72 h culture, CyQuant proliferation assay
# Method: as §1
# Renin mRNA = Renin mRNA inhibition in murine juxtaglomerular cell line As4.1; format: cell-based; conditions: Mus musculus, As4.1 cells treated 24 h at 10^−8, 10^−9 and 10^−10 M, real time PCR normalized to β-actin, read-out: Renin mRNA inh.As4.1/wt
# Method: As4.1 cells (80% subconfluent) were treated in complete medium with compounds of the invention at 10^−8,10^−9 and 10^−10 M for 24 h. Total RNA was extracted using RNeasy Mini kit (Qiagen); treated with DNase I (Qiagen) and Reverse Transcription Reagent (Applied Biosystems) with Random Examers were used for reverse transcription according to the manufacturers' instructions. Real Time PCR analysis was performed in multiplex using commercially available β-actin VIC-conjugated probe (cat. n. 4352341E, Applied Biosystems) and custom designed mRENIN FAM-conjugated probe (Assay by Design, Applied Biosystems; Forward: […]; Reverse: […]; Probe: FAM-[…]-MGB). Reactions were performed in a 25 μL volume containing 12.5 μl […] (Applied Biosystems), 10 ng/reaction/well cDNA, and 2.5 μM each gene-specific primer. An ABI PRISM 7700 analyzer (Applied Biosystems) was used at 50° C. for 2 minutes and 95° C. for 10 minutes, followed by 40 cycles at 95° C. for 15 seconds and 60° C. for 1 minute. Cycle threshold (Ct) values were exported onto Excel worksheets for analysis. Test cDNA results were normalized versus mouse β-actin housekeeping gene. Fold differences in gene expression between the subtracted versus the unsubtracted populations were expressed using the method of 2^−ΔΔCt. (Table 4)
# [1] = Determination of Maximum Tolerated Dose (MTD) in mice (serum calcium); format: in vivo; conditions: mouse, po; female C57BL/6 mice, p.o. daily for four days; highest dose without hypercalcemia (serum calcium>10.7 mg/dl)
# Method: The maximum tolerated dose of the vitamin D3 compounds of the invention were determined in eight week-old female C57BL/6 mice (3 mice/group) dosed orally (0.1 ml/mouse) with various concentrations of Vitamin D3 analogs daily for four days. Analogs were formulated in miglyol for a final concentration of 0.01, 0.03, 0.1, 0.3, 1, 3, 10, 30, 100 and 300 μg/kg when given at 0.1 ml/mouse p.o. daily. Blood for serum calcium assay was drawn by tail bleed on day five, the final day of the study. Serum calcium levels were determined using a colorimetric assay (Sigma Diagnostics, procedure no. 597). The highest dose of analog tolerated without inducing hypercalcemia (serum calcium>10.7 mg/dl) was taken as the maximum tolerated dose (MTD).
Compound,pIC50 (RT112),"pIC50 (RT112; Homo sapiens, RT-112, 72 h)",pIC50 (IFN-γ production),pIC50 (NHEK),pIC50 (RT4),"pIC50 (RT4; Homo sapiens, RT-4, 72 h)",pIC50 (HT 1376),"pIC50 (RT112; Homo sapiens, RT-112)",pIC50 (Renin mRNA),"pIC50 (RT4; Homo sapiens, RT-4)",MTD at 4 days [1]
"C=C1/C(=C\C=C2/CCC[C@]3(C)C([C@H](C)CCCC(C)(C)O)CC[C@@H]23)C[C@@H](O)C[C@@H]1O (stereo partly drawn) [1,25(OH)2D3, 1,25-dihydroxycholecalciferol, reference compound]",4.54,4.72,10.30,5.35,4.59,4.35,4.30,–,–,–,–
"[2H]C([2H])([2H])C(O)(CCCC1([C@H]2CCC3/C(=C/C=C4C[C@@H](O)C[C@H](O)C4)CCC[C@@]32C)CC1)C([2H])([2H])[2H] (stereo partly drawn) [Compound 1, 1,25-Dihydroxy-20-cyclopropyl-26,27-hexadeutero-19-nor-cholecalciferol]",–,–,10.29,5.25,–,–,–,< 4.52,6.81,4.93,0.03 mg/kg
"[2H]C([2H])([2H])C(O)(CCCC1([C@H]2CCC3/C(=C/C=C4C[C@@H](OC(C)=O)C[C@H](OC(C)=O)C4)CCC[C@@]32C)CC1)C([2H])([2H])[2H] (stereo partly drawn) [Compound 2, 1,3-Di-O-acetyl-1,25-dihydroxy-20-cyclopropyl-26,27-hexadeutero-19-nor-cholecalciferol]",–,–,9.41,5.14,–,–,–,4.79,6.99,5.51,0.03 mg/kg
"[2H]C([2H])([2H])C(O)(CCCC1([C@H]2CCC3/C(=C/C=C4/C[C@@H](O)C[C@H](O)C4=C)CCC[C@@]32C)CC1)C([2H])([2H])[2H] (stereo partly drawn) [Compound 3, 1,25-Dihydroxy-20-cyclopropyl-26,27-hexadeutero-cholecalciferol]",–,–,10.19,5.18,–,–,–,4.71,7.37,5.54,0.03 mg/kg
"[2H]C([2H])([2H])C(O)(CCCC1([C@H]2CCC3/C(=C/C=C4/C[C@@H](OC(C)=O)C[C@H](OC(C)=O)C4=C)CCC[C@@]32C)CC1)C([2H])([2H])[2H] (stereo partly drawn) [Compound 4, 1,3-Di-O-acetyl-1,25-dihydroxy-20-cyclopropyl-26,27-hexadeutero-cholecalciferol]",–,–,9.33,5.25,–,–,–,4.73,6.56,5.52,0.03 mg/kg
"[2H]C([2H])([2H])C(O)(CCCC1([C@H]2CCC3/C(=C/C=C4/C[C@@H](O)C[C@H](F)C4=C)CCC[C@@]32C)CC1)C([2H])([2H])[2H] (stereo partly drawn) [Compound 5, 1α-Fluoro-25-hydroxy-20-cyclopropyl-26,27-hexadeutero-cholecalciferol]",–,–,< 8.00,5.33,–,–,–,4.80,–,5.51,0.1 mg/kg
"[2H]C([2H])([2H])C(O)(CCCC1([C@H]2CCC3/C(=C/C=C4/C[C@@H](OC(C)=O)C[C@H](F)C4=C)CCC[C@@]32C)CC1)C([2H])([2H])[2H] (stereo partly drawn) [Compound 6, 3-O-acetyl-1α-fluoro-25-hydroxy-20-cyclopropyl-cholecalciferol]",–,–,9.13,5.25,–,–,–,4.71,8.35,5.35,0.03 mg/kg
"[2H]C([2H])([2H])C(O)(CCCC1(C2=CCC3/C(=C/C=C4/CC(O)C[C@H](O)C4)CCC[C@]23C)CC1)C([2H])([2H])[2H] (stereo partly drawn) [Compound 7, 1,25-Dihydroxy-16-ene-20 cyclopropyl-26,27-hexadeutero-19-nor-cholecalciferol]",–,–,10.49,< 5.00,–,–,–,< 4.52,8.13,5.05,0.001 mg/kg
"[2H]C([2H])([2H])C(O)(CCCC1(C2=CCC3/C(=C/C=C4/CC(O)C[C@H](O)C4=C)CCC[C@]23C)CC1)C([2H])([2H])[2H] (stereo partly drawn) [Compound 8, 1,25-Dihydroxy-16-ene-20-cyclopropyl-26,27-hexadeutero-cholecalciferol]",–,–,10.20,5.15,–,–,–,≤ 4.52,8.31,5.62,0.01 mg/kg
"[2H]C([2H])([2H])C(O)(CCCC1(C2=CCC3/C(=C/C=C4/CC(O)C[C@H](F)C4=C)CCC[C@]23C)CC1)C([2H])([2H])[2H] (stereo partly drawn) [Compound 9, 1α-Fluoro-25-hydroxy-16-ene-20-cyclopropyl-26,27-hexadeutero-cholecalciferol]",–,–,9.31,5.15,–,–,–,≤ 4.52,7.89,5.37,0.01 mg/kg
